ChEMBL document CHEMBL1141201, “Phosphinate, sulfonate, and sulfonamidate dipeptides as potential inhibitors of Escherichia coli aminopeptidase N” (Bioorg Med Chem Lett, 2005)

Target: T1, Aminopeptidase N (Escherichia coli K-12, UniProt P04825)
T1 sequence (P04825 whole entry): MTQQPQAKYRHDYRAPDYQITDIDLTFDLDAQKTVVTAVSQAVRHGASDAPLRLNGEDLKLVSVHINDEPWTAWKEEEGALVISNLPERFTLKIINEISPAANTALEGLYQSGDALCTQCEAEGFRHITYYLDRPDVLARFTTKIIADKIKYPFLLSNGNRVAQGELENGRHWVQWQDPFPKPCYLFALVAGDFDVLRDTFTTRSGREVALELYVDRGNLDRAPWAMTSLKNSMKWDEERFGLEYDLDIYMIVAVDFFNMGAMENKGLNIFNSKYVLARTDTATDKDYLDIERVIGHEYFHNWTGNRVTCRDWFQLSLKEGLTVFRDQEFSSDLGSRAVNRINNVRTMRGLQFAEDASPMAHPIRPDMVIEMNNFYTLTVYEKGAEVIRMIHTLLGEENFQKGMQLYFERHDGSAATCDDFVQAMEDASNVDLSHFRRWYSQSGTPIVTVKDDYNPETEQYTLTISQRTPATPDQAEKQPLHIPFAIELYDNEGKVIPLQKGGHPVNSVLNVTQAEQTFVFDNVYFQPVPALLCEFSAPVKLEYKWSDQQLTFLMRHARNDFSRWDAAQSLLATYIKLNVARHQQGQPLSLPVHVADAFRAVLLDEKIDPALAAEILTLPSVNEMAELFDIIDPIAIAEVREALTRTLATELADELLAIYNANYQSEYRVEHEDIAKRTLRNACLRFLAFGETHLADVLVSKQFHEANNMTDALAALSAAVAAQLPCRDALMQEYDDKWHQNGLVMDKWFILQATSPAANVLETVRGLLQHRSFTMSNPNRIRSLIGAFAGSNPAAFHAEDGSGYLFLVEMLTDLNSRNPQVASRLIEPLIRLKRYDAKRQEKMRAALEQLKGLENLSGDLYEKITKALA
Experiment: Inhibitory activity against aminopeptidase N (PepN) from Escherichia coli

Structure (SMILES) | Ki
CC(NS(=O)(=O)C(C)N)C(=O)O (stereo not given) | > 300 µM
CCCCCCCCC(CP(=O)(O)C(C)N)C(=O)O (stereo not given) | 1.1 µM
CC(OS(=O)(=O)C(C)N)C(=O)O (stereo not given) | > 300 µM
C/C(=C\P(=O)(O)C(C)N)C(=O)O (stereo not given) | 1 µM
CC(CP(=O)(O)C(C)N)C(=O)O (stereo not given) | 10 µM
